Data as given in US9770025B2, “Fungicidal compositions” (Syngenta Participations AG, priority 2013, dated 2017).
Several values for one entry are separate records, joined by “and”; a condition that tells them apart may be missing. Equal values may be shown once. Read-outs that look alike come from different tables or passages of the source.

What was measured:
Type in all cases: cell-based
Alternaria solani = Alternaria solani liquid culture growth inhibition; details: for inhibition at 0.0008 ppm: read-out: Compound 1.001 inhibition (%), 0.0008 ppm; for inhibition at 0.0016 ppm: read-out: Compound 1.001 inhibition (%), 0.0016 ppm; for inhibition at 0.0031 ppm: read-out: Compound 1.001 inhibition (%), 0.0031 ppm
Experimental: (§1) Liquid Culture Tests in Well Plates
Mycelia fragments or conidia suspensions of a fungus, prepared either freshly from liquid cultures of the fungus or from cryogenic storage, were directly mixed into nutrient broth. DMSO solutions of the test compound (max. 10 mg/ml) was diluted with 0.025% Tween20 by factor 50 and 10 μl of this solution was pipetted into a microtiter plate (96-well format). […] The test plates were incubated in the dark at 24° C. and 96% rh. The inhibition of fungal growth was determined photometrically and visually after 2-4 days, depending on the pathosystem, and percent antifungal activity relative to the untreated check was calculated.
Alternaria solanil/Liquid Culture:
(§2) Conidia of the fungus from cryogenic storage were directly mixed into nutrient broth (PDB potato dextrose broth). After placing a (DMSO) solution of test compound into a microtiter plate (96-well format), the nutrient broth containing the fungal spores was added.

[1] = system: Botryotinia fuckeliana (Botrytis cinerea); assay: Botryotinia fuckeliana (Botrytis cinerea) liquid culture growth inhibition; details: for inhibition at 0.0016 ppm: read-out: Compound 1.001 inhibition (%), 0.0016 ppm; for inhibition at 0.0125 ppm: read-out: Compound 1.001 inhibition (%), 0.0125 ppm
Experimental: as §1
(§3) Mycelia fragments or conidia suspensions of a fungus, prepared either freshly from liquid cultures of the fungus or from cryogenic storage, were directly mixed into nutrient broth. DMSO solutions of the test compound (max. 10 mg/ml) was diluted with 0.025% Tween20 by factor 50 and 10 μl of this solution was pipetted into a microtiter plate (96-well format). The nutrient broth containing the fungal spores/mycelia fragments was then added to give an end concentration of the tested compound. The test plates were incubated in the dark at 24° C. and 96% rh. The inhibition of fungal growth was determined photometrically and visually after 2-4 days, depending on the pathosystem, and percent antifungal activity relative to the untreated check was calculated.
Botryotinia fuckeliana (Botrytis cinerea)/Liquid Culture:
Conidia of the fungus from cryogenic storage were directly mixed into nutrient broth (Vogels broth). After placing a (DMSO) solution of test compound into a microtiter plate (96-well format), the nutrient broth containing the fungal spores was added.

Fusarium culmorum = Fusarium culmorum liquid culture growth inhibition; details: for inhibition at 0.025 ppm: read-out: Compound 1.001 inhibition (%), 0.0250 ppm; for inhibition at 0.05 ppm: read-out: Compound 1.001 inhibition (%), 0.0500 ppm
Experimental: as §1, §3
Fusarium culmorum/Liquid Culture:
as §2

Gaeumannomyces graminis = Gaeumannomyces graminis liquid culture growth inhibition; details: Gaeumannomyces graminis, read-out: Compound 1.001 inhibition (%), in PDB
Experimental: as §1, §3
Gaeumannomyces graminis/Liquid Culture:
Mycelial fragments of the fungus from cryogenic storage were directly mixed into nutrient broth (PDB potato dextrose broth). After placing a (DMSO) solution of test compound into a microtiter plate (96-well format), the nutrient broth containing the fungal spores was added.

[2] = system: Monographella nivalis (Microdochium nivale); assay: Monographella nivalis (Microdochium nivale) liquid culture growth inhibition
Experimental: as §1, §3
Monographella nivalis (Microdochium nivale)/Liquid Culture:
as §2

[3] = system: Mycosphaerella graminicola (Septoria tritici); assay: Mycosphaerella graminicola (Septoria tritici) liquid culture growth inhibition; details: for inhibition at 0.0008 ppm / inhibition at 0.0016 ppm / inhibition at 0.0031 ppm: Zymoseptoria tritici; for inhibition at 0.0008 ppm: read-out: Compound 1.001 inhibition (%), 0.0008 ppm; for inhibition at 0.0016 ppm: read-out: Compound 1.001 inhibition (%), 0.0016 ppm; for inhibition at 0.0031 ppm: read-out: Compound 1.001 inhibition (%), 0.0031 ppm
Experimental: as §1, §3
Mycosphaerella graminicola (Septoria tritici)/Liquid Culture:
as §2

Pythium ultimum = Pythium ultimum (seedling damping off) liquid culture growth inhibition; details: Globisporangium ultimum, read-out: Compound 1.001 inhibition (%), PDB
Experimental: as §1, §3
Pythium ultimum Seedling Damping Off)/Liquid Culture:
Mycelia fragments and oospores of a newly grown liquid culture of the fungus were directly mixed into nutrient broth (PDB potato dextrose broth). After placing a (DMSO) solution of the test compounds into a microtiter plate (96-well format), the nutrient broth containing the fungal mycelia/spore mixture was added.

[4] = Alternaria solani, PDB, Table 7
[5] = Alternaria solani, PDB, Table 9
[6] = Alternaria solani, PDB, Table 11
[7] = Alternaria solani, PDB, Table 13
[8] = Botrytis cinerea, Vogels Broth, Table 6
[9] = Botrytis cinerea, in Vogels Broth
[10] = Fusarium culmorum, PDB, Table 4

## CON(C(=O)c1cn(C)nc1C(F)F)C(C)Cc1c(Cl)cc(Cl)cc1Cl (stereo not drawn) [Compound 1.001, 3-(difluoromethyl)-N-methoxy-1-methyl-N-[1-methyl-2-(2,4,6-trichlorophenyl)ethyl]pyrazole-4-carboxamide]
Alternaria solani; 0.0016 ppm, in PDB
  Compound 1.001 inhibition (%): 74%
Alternaria solani; Alternaria solani, read-out: Compound 1.001 inhibition (%), 0.0004 ppm, in PDB
  inhibition at 0.0004 ppm: 21%
Alternaria solani; [4]
  inhibition at 0.0008 ppm: 36%
  inhibition at 0.0016 ppm: 57%
  inhibition at 0.0031 ppm: 81%
Alternaria solani; [5]
  inhibition at 0.0008 ppm: 37%
  inhibition at 0.0016 ppm: 64%
Alternaria solani; [6]
  inhibition at 0.0008 ppm: 42%
  inhibition at 0.0016 ppm: 68%
Alternaria solani; [7]
  inhibition at 0.0008 ppm: 51%
  inhibition at 0.0016 ppm: 69%
  inhibition at 0.0031 ppm: 82%
Alternaria solani; Alternaria solani, in PDB
  inhibition at 0.0016 ppm: 65%
[1]; 0.0016 ppm, in Vogels Broth
  Compound 1.001 inhibition (%): 33% and 29%
[1]; 0.0031 ppm, in Vogels Broth
  Compound 1.001 inhibition (%): 54%
[1]; 0.0063 ppm, in Vogels Broth
  Compound 1.001 inhibition (%): 62% and 38%
[1]; Botrytis cinerea, read-out: Compound 1.001 inhibition (%), 0.0004 ppm, in Vogels Broth
  inhibition at 0.0004 ppm: 8%
[1]; Botrytis cinerea, read-out: Compound 1.001 inhibition (%), 0.0008 ppm, in Vogels Broth
  inhibition at 0.0008 ppm: 21%
[1]; [8]
  inhibition at 0.0016 ppm: 16%
  inhibition at 0.0125 ppm: 79%
[1]; [9]
  inhibition at 0.0016 ppm: 26%
  inhibition at 0.0125 ppm: 79%
[1]; Botrytis cinerea, read-out: Compound 1.001 inhibition (%), 0.0031 ppm, Vogels Broth, Table 6
  inhibition at 0.0031 ppm: 49%
[1]; Botrytis cinerea, read-out: Compound 1.001 inhibition (%), 0.0031 ppm, in Vogels Broth
  inhibition at 0.0031 ppm: 44%
[1]; Botrytis cinerea, read-out: Compound 1.001 inhibition (%), 0.0063 ppm, Vogels Broth, Table 6
  inhibition at 0.0063 ppm: 61%
[1]; Botrytis cinerea, read-out: Compound 1.001 inhibition (%), compound 1.001 alone at 0.0031 ppm, in Vogels Broth
  inhibition at 0.0031 ppm: 40%
[1]; Botrytis cinerea, read-out: Compound 1.001 inhibition (%), compound 1.001 alone at 0.0063 ppm, in Vogels Broth
  inhibition at 0.0063 ppm: 60%
Fusarium culmorum; 0.0250 ppm, in PDB
  Compound 1.001 inhibition (%): 27% and 34% and 29%
Fusarium culmorum; 0.0500 ppm, in PDB
  Compound 1.001 inhibition (%): 54% and 53%
Fusarium culmorum; 0.1000 ppm, in PDB
  Compound 1.001 inhibition (%): 57%
Fusarium culmorum; 0.2000 ppm, in PDB
  Compound 1.001 inhibition (%): 59% and 57%
Fusarium culmorum; Fusarium culmorum, read-out: Compound 1.001 inhibition (%), 0.0016 ppm, PDB, Table 4
  inhibition at 0.0016 ppm: 7%
Fusarium culmorum; Fusarium culmorum, read-out: Compound 1.001 inhibition (%), 0.0031 ppm, PDB, Table 4
  inhibition at 0.0031 ppm: 19%
Fusarium culmorum; Fusarium culmorum, read-out: Compound 1.001 inhibition (%), 0.0063 ppm, PDB, Table 4
  inhibition at 0.0063 ppm: 14%
Fusarium culmorum; Fusarium culmorum, read-out: Compound 1.001 inhibition (%), 0.0125 ppm, PDB, Table 4
  inhibition at 0.0125 ppm: 20%
Fusarium culmorum; [10]
  inhibition at 0.025 ppm: 38%
  inhibition at 0.05 ppm: 46%
Fusarium culmorum; Fusarium culmorum, in PDB
  inhibition at 0.025 ppm: 24%
  inhibition at 0.05 ppm: 49%
Fusarium culmorum; Fusarium culmorum, read-out: Compound 1.001 inhibition (%), 0.1000 ppm, in PDB
  inhibition at 0.1 ppm: 51%
Fusarium culmorum; Fusarium culmorum, read-out: Compound 1.001 inhibition (%), 0.2000 ppm, in PDB
  inhibition at 0.2 ppm: 55%
Gaeumannomyces graminis; 0.0250 ppm
  inhibition at 0.025 ppm: 0%
Gaeumannomyces graminis; 0.0500 ppm
  inhibition at 0.05 ppm: 0%
Gaeumannomyces graminis; 0.2000 ppm
  inhibition at 0.2 ppm: 0%
[2]; 0.0008 ppm, in PDB
  Compound 1.001 inhibition (%): 3%
[2]; 0.0250 ppm, in PDB
  Compound 1.001 inhibition (%): 5%
[2]; 0.0500 ppm, in PDB
  Compound 1.001 inhibition (%): 48%
[2]; Monographella nivalis, read-out: Compound 1.001 inhibition (%), 0.0004 ppm, PDB, Table 5
  inhibition at 0.0004 ppm: 0%
[2]; Monographella nivalis, read-out: Compound 1.001 inhibition (%), 0.0008 ppm, PDB, Table 5
  inhibition at 0.0008 ppm: 0%
[2]; Monographella nivalis, read-out: Compound 1.001 inhibition (%), 0.0008 ppm, in PDB
  inhibition at 0.0008 ppm: 2%
[2]; Monographella nivalis, read-out: Compound 1.001 inhibition (%), 0.0016 ppm, PDB, Table 5
  inhibition at 0.0016 ppm: 0%
[2]; Monographella nivalis, read-out: Compound 1.001 inhibition (%), 0.0016 ppm, in PDB
  inhibition at 0.0016 ppm: 0%
[2]; Monographella nivalis, read-out: Compound 1.001 inhibition (%), 0.0031 ppm, PDB, Table 5
  inhibition at 0.0031 ppm: 0%
[2]; Monographella nivalis, read-out: Compound 1.001 inhibition (%), 0.0125 ppm, in PDB
  inhibition at 0.0125 ppm: 0%
[2]; Monographella nivalis, read-out: Compound 1.001 inhibition (%), 0.0500 ppm, in PDB
  inhibition at 0.05 ppm: 51%
[2]; Monographella nivalis, read-out: Compound 1.001 inhibition (%), compound 1.001 alone at 0.0004 ppm, in PDB
  inhibition at 0.0004 ppm: 4%
[2]; Monographella nivalis, read-out: Compound 1.001 inhibition (%), compound 1.001 alone at 0.0008 ppm, in PDB
  inhibition at 0.0008 ppm: 1%
[2]; Monographella nivalis, read-out: Compound 1.001 inhibition (%), compound 1.001 alone at 0.0016 ppm, in PDB
  inhibition at 0.0016 ppm: 0%
[2]; Monographella nivalis, read-out: Compound 1.001 inhibition (%), compound 1.001 alone at 0.0063 ppm, in PDB (Table 38)
  inhibition at 0.0063 ppm: 0%
[2]; Monographella nivalis, read-out: Compound 1.001 inhibition (%), compound 1.001 alone at 0.0125 ppm, in PDB
  inhibition at 0.0125 ppm: 0%
[2]; Monographella nivalis, read-out: Compound 1.001 inhibition (%), compound 1.001 alone at 0.0125 ppm, in PDB (Table 38)
  inhibition at 0.0125 ppm: 0%
[3]; 0.0016 ppm, in PDB
  Compound 1.001 inhibition (%): 33%
[3]; 0.0031 ppm, in PDB
  Compound 1.001 inhibition (%): 82%
[3]; PDB, Table 8
  inhibition at 0.0008 ppm: 15%
  inhibition at 0.0016 ppm: 34%
  inhibition at 0.0031 ppm: 81%
[3]; in PDB
  inhibition at 0.0008 ppm: 19%
  inhibition at 0.0031 ppm: 83%
[3]; PDB, Table 12
  inhibition at 0.0016 ppm: 54%
[3]; PDB, Table 14
  inhibition at 0.0016 ppm: 47%
Pythium ultimum; 0.0016 ppm, Table 10
  inhibition at 0.0016 ppm: 0%
Pythium ultimum; 0.0031 ppm, Table 10
  inhibition at 0.0031 ppm: 0%
Pythium ultimum; 0.0063 ppm, Table 3
  inhibition at 0.0063 ppm: 11%
Pythium ultimum; 0.0125 ppm, Table 3
  inhibition at 0.0125 ppm: 0%
Pythium ultimum; 0.0250 ppm, Table 3
  inhibition at 0.025 ppm: 0%
Pythium ultimum; 0.0500 ppm, Table 3
  inhibition at 0.05 ppm: 0%
Pythium ultimum; 0.1000 ppm, Table 3
  inhibition at 0.1 ppm: 2%
Pythium ultimum; 0.2000 ppm, Table 3
  inhibition at 0.2 ppm: 0%
